One molecule from patent US20170190705A1, “Compositions and Methods for Inhibiting BMP” (THE BRIGHAM AND WOMAN'S HOSPITAL, INC., priority 2014, published 2017) can be followed below.

The target in data set [1] is T1, ALK2 (Homo sapiens, UniProt Q04771, Q207D).
T1 construct: His tag (TEV-cleavable) (N, cleaved yes); made in house; host or cells: Sf9 insect cells (baculovirus)
T1 sequence (Q04771 201-499 Q207D): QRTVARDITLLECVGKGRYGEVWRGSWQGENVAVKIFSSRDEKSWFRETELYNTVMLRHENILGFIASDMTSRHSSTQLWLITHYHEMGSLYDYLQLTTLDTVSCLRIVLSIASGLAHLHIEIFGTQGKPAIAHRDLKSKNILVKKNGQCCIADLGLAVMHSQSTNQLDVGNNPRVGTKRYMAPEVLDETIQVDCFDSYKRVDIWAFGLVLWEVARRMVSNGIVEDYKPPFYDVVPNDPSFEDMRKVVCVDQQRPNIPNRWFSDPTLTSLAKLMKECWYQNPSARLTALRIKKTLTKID
As to the kind of experiment: Thermal shift kinase assay ALK2. Type of data set: binding. On the procedure:
(§1) Thermal melting experiments were performed using a Real Time PCR machine Mx3005p (Stratagene) with a protein concentration of 1-2 μM and 10 μM inhibitor as described by Niesen et al., Nat Protoc 2007, 2, 2212-21. Recombinant human kinases for DSF screening were prepared by SGC using the published methods of Sanvitale et al., PLoS One 2013, 8, e62721. The potency and selectivity of certain compounds of the invention based on thermal shift kinase and ligand induced transcriptional activity assays are shown in Table 2.

In data set [2] the target is T2, ALK5 (Homo sapiens, UniProt P36897).
T2 construct: made in house
T2 sequence (P36897 34-503): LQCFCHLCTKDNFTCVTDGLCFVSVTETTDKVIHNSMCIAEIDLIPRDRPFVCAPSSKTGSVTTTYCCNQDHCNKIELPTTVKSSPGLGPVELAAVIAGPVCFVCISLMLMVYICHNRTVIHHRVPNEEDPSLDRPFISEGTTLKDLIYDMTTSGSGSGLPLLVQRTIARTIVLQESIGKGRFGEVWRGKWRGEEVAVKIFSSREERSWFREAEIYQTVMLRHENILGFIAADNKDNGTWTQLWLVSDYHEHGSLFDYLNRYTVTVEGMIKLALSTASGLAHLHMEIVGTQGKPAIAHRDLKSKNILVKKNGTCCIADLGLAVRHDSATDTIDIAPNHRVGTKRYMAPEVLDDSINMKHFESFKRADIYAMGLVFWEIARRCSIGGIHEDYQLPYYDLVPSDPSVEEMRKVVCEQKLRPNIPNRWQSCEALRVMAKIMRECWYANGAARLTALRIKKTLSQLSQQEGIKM
As to the kind of experiment: Thermal shift kinase assay ALK5. Format: binding. How it is done: as §1

Data set [3] concerns HePG2 hepatocarcinoma cells. Type of data set: cell-based. Particulars: human. On the procedure:
The cells were incubated for 2 h (37° C. and 5% CO2) and allowed to settle and attach. Compounds of interest or DMSO were diluted in DMEM and added at final compound concentrations of 1 μM, 10 μM, and 100 μM. Cells were incubated for 4 hours and 24 hours after which the media was discarded. Cells were lysed by adding 30 μL of passive lysis buffer (Promega) and shaken at RT for 15 min. Cell viability was determined by quantifying the ATP present in each well by adding 10 μL of CellTiter-Glo (Promega) per well and measuring the light output Spectramax L luminometer (Molecular Devices) with an integration time of one second per well. Data was normalized to 100% viability for cells receiving only DMSO without any concurrent compound.

Data set [4] concerns the target T3, caALK1 (Homo sapiens, UniProt P37023, Q201D).
T3 construct: expressed in transfected cells; host or cells: C2C12 BRE-Luc cells infected with adenovirus (MOI 100)
As to the kind of experiment: Luciferase reporter assay constitutively active ALK1. The conditions noted are these: read-out: Cell Based Assay caALK1 IC50. On the procedure:
(§2) The cells were incubated for 1 h (37° C. and 10% CO2) and allowed to settle and attach. Compounds of interest or DMSO were diluted in DMEM and added at final compound concentrations of 1 nM to 10 μM. Cells were then incubated for 30 min. Adenovirus expressing constitutively active BMP and TGF-β type I receptors (Ad.caALK1-5), generously provided by Dr. Akiko Hata (University of to California at San Francisco), were added to achieve a multiplicity of infection (MOI) of 100. Plates were incubated overnight at 37° C. Cell viability was assayed with an MIT (3-(4,5-dimethylthiazol-2-yl)-2,5-diphenyl tetrazolium bromide) colorimetric assay (Promega) per the manufacturer's instructions. Media was discarded, and firefly luciferase activity was measured (Promega) according to manufacturer's protocol. Light output was measured using a Spectramax L luminometer (Molecular Devices) with an integration time of one second per well. Data was normalized to 100% of incremental BRE-Luc activity due to adenoviruses specifying caALK1, 2, or 3, or the incremental CAGA-Luc activity due to adenoviruses specifying caALK4 or 5.
In general terms: A reporter such as luciferase makes a cellular process visible.

For data set [5], the target named is T4, caALK3 (Homo sapiens, UniProt P36894, Q233D).
T4 construct: expressed in transfected cells; host or cells: C2C12 BRE-Luc cells infected with adenovirus (MOI 100)
In words: Luciferase reporter assay constitutively active ALK3. Particulars: read-out: Cell Based Assay caALK3 IC50.
From the text: as §2, with “C2Cl2 […] cells stably transfected with BMP responsive element from the Id promoter fused to luciferase reporter gene (BRE-Luc) were generously provided by Dr. Peter ten Dijke (Leiden University Medical Center, NL) following the methods described by Zilberberg et al., BMC cell biology 2007, 8, 41-50. Human embryonic kidney 293T cells stably transfected with the TGF-β responsive element from the PAI-1 promoter fused to luciferase reporter gene (CAGA-Luc) were generously provided by Dr. Howard Weiner (Brigham and Women's Hospital, Boston, Mass.) following the methods described by Oida et al., PloS one 2011, 6, e18365. C2Cl2 Bre-Luc and 293T CAGA-Luc cells were seeded in DMEM supplemented with 2% FBS at 20,000 cells per well in tissue culture treated 96-well plates (Costar® 3610; Corning). The” for “The”

The target of data set [6] is T5, caALK4 (Homo sapiens, UniProt P36896).
T5 sequence (P36896 1-505 T206D): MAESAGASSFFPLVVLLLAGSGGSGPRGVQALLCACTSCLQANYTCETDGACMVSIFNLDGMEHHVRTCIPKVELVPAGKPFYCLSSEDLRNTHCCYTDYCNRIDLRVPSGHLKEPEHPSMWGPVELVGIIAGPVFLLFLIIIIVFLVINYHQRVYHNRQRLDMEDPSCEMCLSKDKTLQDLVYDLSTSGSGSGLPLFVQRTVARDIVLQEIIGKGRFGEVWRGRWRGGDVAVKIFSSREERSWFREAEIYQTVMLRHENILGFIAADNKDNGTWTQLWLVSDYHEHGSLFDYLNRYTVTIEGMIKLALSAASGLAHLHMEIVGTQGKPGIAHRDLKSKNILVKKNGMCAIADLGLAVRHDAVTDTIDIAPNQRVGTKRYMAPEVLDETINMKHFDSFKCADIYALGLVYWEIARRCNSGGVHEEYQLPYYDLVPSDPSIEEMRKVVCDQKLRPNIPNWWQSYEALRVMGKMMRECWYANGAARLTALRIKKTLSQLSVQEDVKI
As to the kind of experiment: Luciferase reporter assay constitutively active ALK4. The conditions noted are these: read-out: Cell Based Assay caALK4 IC50.
From the text: as §2, with “C2Cl2 […] cells stably transfected with BMP responsive element from the Id promoter fused to luciferase reporter gene (BRE-Luc) were generously provided by Dr. Peter ten Dijke (Leiden University Medical Center, NL) following the methods described by Zilberberg et al., BMC cell biology 2007, 8, 41-50. Human embryonic kidney 293T cells stably transfected with the TGF-β responsive element from the PAI-1 promoter fused to luciferase reporter gene (CAGA-Luc) were generously provided by Dr. Howard Weiner (Brigham and Women's Hospital, Boston, Mass.) following the methods described by Oida et al., PloS one 2011, 6, e18365. C2Cl2 Bre-Luc and 293T CAGA-Luc cells were seeded in DMEM supplemented with 2% FBS at 20,000 cells per well in tissue culture treated 96-well plates (Costar® 3610; Corning). The” for “The”

The structures appear in SMILES notation. Where two headings read alike, the source gives them in different places.

T4 sequence (P36894 24-532 Q233D): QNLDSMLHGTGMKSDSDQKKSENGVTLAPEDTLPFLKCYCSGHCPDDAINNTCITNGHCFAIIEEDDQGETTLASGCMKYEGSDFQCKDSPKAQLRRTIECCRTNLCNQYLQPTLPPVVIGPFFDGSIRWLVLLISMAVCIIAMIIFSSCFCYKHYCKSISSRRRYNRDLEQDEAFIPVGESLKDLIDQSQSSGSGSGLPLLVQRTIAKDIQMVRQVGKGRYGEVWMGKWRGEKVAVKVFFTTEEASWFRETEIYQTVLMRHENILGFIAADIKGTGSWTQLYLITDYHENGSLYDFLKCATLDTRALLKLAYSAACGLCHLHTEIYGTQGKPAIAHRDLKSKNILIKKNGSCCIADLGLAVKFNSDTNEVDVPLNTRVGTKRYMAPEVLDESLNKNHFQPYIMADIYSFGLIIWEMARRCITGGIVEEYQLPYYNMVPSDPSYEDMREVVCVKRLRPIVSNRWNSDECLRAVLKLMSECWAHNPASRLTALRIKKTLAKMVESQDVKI
T3 sequence (P37023 22-503 Q201D): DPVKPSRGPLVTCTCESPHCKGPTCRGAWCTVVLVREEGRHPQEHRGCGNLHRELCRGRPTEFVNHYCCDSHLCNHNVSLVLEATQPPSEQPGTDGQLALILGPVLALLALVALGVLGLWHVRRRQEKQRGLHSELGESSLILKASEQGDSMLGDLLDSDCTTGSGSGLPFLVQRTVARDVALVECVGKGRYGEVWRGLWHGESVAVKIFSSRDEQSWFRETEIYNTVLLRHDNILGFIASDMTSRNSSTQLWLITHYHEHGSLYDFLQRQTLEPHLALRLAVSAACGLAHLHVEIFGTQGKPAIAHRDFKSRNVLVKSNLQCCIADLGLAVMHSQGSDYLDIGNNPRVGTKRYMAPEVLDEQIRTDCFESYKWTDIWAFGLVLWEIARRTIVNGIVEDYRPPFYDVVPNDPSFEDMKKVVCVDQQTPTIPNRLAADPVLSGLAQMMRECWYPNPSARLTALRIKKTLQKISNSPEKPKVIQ

With `COc1cc(-c2cncc(-c3ccc(N4CCNCC4)cc3)c2)cc(OC)c1OC` [Compound 26, 1-(4-(5-(3,4,5-trimethoxyphenyl)pyridin-3-yl)phenyl)piperazine], the ΔTm at 10 µM in data set [1] (10 μM inhibitor) worked out at 14 °C; in data set [2] (10 μM inhibitor), 10.4 °C. Further, the ΔTmDiff. in data set [1] (ALK2 minus ALK5) turned out to be 3.7. For the same molecule, in data set [1] (Table 6), the “ΔT ALK2” value turned out to be 14.1 °C. Further, the “ΔT Diff.” value in data set [1] (Table 6, ALK2 minus ALK5) is 3.7 °C. Besides, in data set [2] (Table 6), the “ΔT ALK5” value is 10.4 °C. Also, the Cell viability in data set [3] (4 h, 1 μM) worked out at 96%; in data set [3] (4 h, 10 μM) it was 103%; in data set [3] (24 h, 1 μM), 103%; in data set [3] (24 h, 10 μM), 80%. Besides, the IC50 in data set [4] was determined as 202 nM; in data set [5], 105 nM; in data set [6], 427 nM.

In general, ΔTm refers to the shift of the melting midpoint relative to a reference. Broadly, the IC50 is the point on the concentration scale where inhibition reaches its midpoint.
